According to patent US12655145B2, “P2X3 modulators” (GlaxoSmithKline Intellectual Property (No. 3) Limited, priority 2020, dated 2026):

biological target: T1, P2X3 (Homo sapiens, UniProt P56373); experiment: P2X3 Antagonist Assay (FLIPR calcium, Fluo-8, HEK293 cells transfected with human ion channel cDNAs, αβ-meATP stimulation); format: cell-based; details: HEK293, @ 1 μM, antagonist mode, αβ-meATP 3 μM, read-out: P2X3 IC50 column, given as % @ 1 μM
T1 construct: expressed in transfected cells; host or cells: HEK293
T1 sequence (P56373 1-397): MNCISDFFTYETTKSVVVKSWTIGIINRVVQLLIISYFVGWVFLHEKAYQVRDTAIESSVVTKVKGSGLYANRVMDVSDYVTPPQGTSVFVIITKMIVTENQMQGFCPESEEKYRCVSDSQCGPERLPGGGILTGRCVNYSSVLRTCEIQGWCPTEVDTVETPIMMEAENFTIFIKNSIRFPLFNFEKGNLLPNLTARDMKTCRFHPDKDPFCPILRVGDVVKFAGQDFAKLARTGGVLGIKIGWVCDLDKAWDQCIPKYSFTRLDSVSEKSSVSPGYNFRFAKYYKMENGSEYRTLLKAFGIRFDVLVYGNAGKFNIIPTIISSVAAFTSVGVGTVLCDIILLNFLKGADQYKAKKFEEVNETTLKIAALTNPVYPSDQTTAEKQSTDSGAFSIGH
Description: Example 59: P2X3 Antagonist Assay
HEK293 were transiently or stably transfected with human ion channel cDNAs as indicated in section 1. Stable transfectants were selected by coexpression with the antibiotic-resistance gene(s) incorporated into the expression plasmid(s). Selection pressure was maintained by including selection antibiotics in the culture medium. HEK293 cells were cultured in Dulbecco's Modified Eagle Medium/Nutrient Mixture F-12 (D-MEM/F-12) supplemented with 10% fetal bovine serum, 100 U/mL penicillin G sodium, 100 J·Lg/mL streptomycin sulfate and appropriate selection antibiotics.
The effect of each test article to act as an antagonist was evaluated. Each test article was evaluated at eight (8) concentrations (0.001, 0.003, 0.01, 0.03, 0.1, 0.3, 1 and 3 μM, n=3) with 4 replicates for each concentration. Experiments were performed with the FLIPR calcium sensitive dye kit (Fluo-8 dye, AAT, Bioquest) according to the manufacturer's instructions. • Dye-loading: Growth media will be removed and add 20 μL of Mg^++-free HBPS containing Fluo-8 for 30 min at 37° C. • Preincubation (FLIPR step 1): Adding 5× (5 μL) test, vehicle, or control article solutions in Mg^+-free HBPS to each well for 20 minutes at room temperature, protected from light. • Stimulation (FLIPR step 2): After pre-incubation, cells will be stimulated with 6× (5 μL) αβ-meATP at final concentration of 3 μM prepared in Mg^++-free HBPS. • Non-Specific Calcium Influx (FLIPR step 3): 5 minutes after stimulation solution addition, non-specific calcium influx will be activated by adding 7×(5 μL) ionomycin at a final concentration of 5 μM. Fluorescence will be recorded continuously during FLIPR steps 2 and 3. • Positive Control Antagonist: PPADS (1 mM).
Data acquisition was performed via the FLIPRControl software that is supplied with the FLIPR System (MDS-AT) and data was analyzed using Microsoft Excel2003 (Microsoft Corp., Redmond, WA).

| SMILES | inhibition at 1 µM |
| --- | --- |
| CNC(=O)c1ccc(-c2nc3cc(C4CC4)ccn3c2C[C@H]2CN(C(=O)OC)CCO2)c(F)c1 [Compound A52, methyl (S)-2-((7-cyclopropyl-2-(2-fluoro-4-(methylcarbamoyl)-phenyl)imidazo[1,2-a]pyridin-3-yl)methyl)morpholine-4-carboxylate] | 50% |
| COC(=O)N1CCO[C@@H](Cc2c(-c3ccc([S+](C)[O-])cc3F)nc3cc(C)ccn23)C1 (stereo partly drawn) [Compound A58, methyl (2S)-2-((2-(2-fluoro-4-(methylsulfinyl)phenyl)-7-methyl-imidazo[1,2-a]pyridin-3-yl)methyl)morpholine-4-carboxylate] | 16% |
| CNC(=O)c1cc(F)c(-c2nc3cc(C)ccn3c2CC2CCC(NC(C)=O)CC2)c(F)c1 (stereo not drawn) [cis-A21, 4-(3-((4-acetamidocyclohexyl)methyl)-7-methylimidazo[1,2-a]pyridin-2-yl)-3,5-difluoro-N-methylbenzamide] | 20% |

same assay, conditions: antagonist mode, αβ-meATP 3 μM

| SMILES | IC50 |
| --- | --- |
| CNC(=O)c1cc(C)c(-c2nc3cc(C(F)F)ccn3c2C[C@H]2CN(C(=O)OC)CCO2)cc1F [Compound A44, methyl (S)-2-((7-(difluoromethyl)-2-(5-fluoro-2-methyl-4-(meth-ylcarbamoyl)phenyl)imidazo[1,2-a]pyridin-3-yl)methyl)morpholine-4-carboxylate] | < 100 nM |
| CCc1ccn2c(C[C@H]3CN(C(=O)OC)CCO3)c(-c3ccc(C(=O)NC)cc3F)nc2c1 [Compound A45, methyl (S)-2-((7-ethyl-2-(2-fluoro-4-(methylcarbamoyl)phenyl)imidazo[1,2-a]pyridin-3-yl)methyl)morpholine-4-carboxylate] | < 100 nM |
| CNC(=O)c1ccc(-c2nc3cc(S(C)(=O)=O)ccn3c2C[C@H]2CN(C(=O)OC)CCO2)c(F)c1 [Compound A48, methyl (S)-2-((2-(2-fluoro-4-(methylcarbamoyl)phenyl)-7-(methylsulfonyl)imidazo[1,2-a]-pyridin-3-yl)methyl)morpholine-4-carboxylate] | > 1000 nM |
| CNC(=O)c1ccc(-c2nc3cc(CF)ccn3c2C[C@H]2CN(C(=O)OC)CCO2)c(F)c1 [Compound A49, methyl (S)-2-((2-(2-fluoro-4-(methylcarbamoyl)phenyl)-7-(fluoromethyl)imidazo[1,2-a]pyridin-3-yl)methyl)morpholine-4-carboxylate] | 100 to 1000 nM |
| COC(=O)N1CCO[C@@H](Cc2c(-c3ccc(S(C)(=O)=O)cc3F)nc3cc(C)ccn23)C1 [Compound A61, methyl (S)-2-((2-(2-fluoro-4-(methylsulfonyl)phenyl)-7-methylimidazo[1,2-a]pyridin-3-yl)methyl)morpholine-4-carboxylate] | 100 to 1000 nM |
| COC(=O)N1CCO[C@@H](Cc2c(-c3ccc(C(=O)N(C)C)cc3F)nc3cc(Cl)ccn23)C1 [Compound A65, methyl (S)-2-((7-chloro-2-(4-(dimethylcarbamoyl)-2-fluoro-phenyl)imidazo[1,2-a]pyridin-3-yl)methyl)morpholine-4-carboxylate] | 100 to 1000 nM |
| CCN(C)C(=O)c1ccc(-c2nc3cc(Cl)ccn3c2C[C@H]2CN(C(=O)OC)CCO2)c(F)c1 [Compound A66, methyl (S)-2-((7-chloro-2-(4-(ethyl(methyl)carbamoyl)-2-fluoro-phenyl)imidazo[1,2-a]pyridin-3-yl)methyl)morpholine-4-carboxylate] | < 100 nM |
| COC(=O)N1CCO[C@@H](Cc2c(-c3ccc(C(=O)N4CCCC4)cc3F)nc3cc(Cl)ccn23)C1 [Compound A67, methyl (S)-2-((7-chloro-2-(2-fluoro-4-(pyrrolidine-1-carbonyl)-phenyl)imidazo[1,2-a]pyridin-3-yl)methyl)morpholine-4-carboxylate] | 100 to 1000 nM |
| COC(=O)N1CCO[C@@H](Cc2c(-c3ccc(C(=O)N4CC[C@H](O)C4)cc3F)nc3cc(Cl)ccn23)C1 [Compound A68, methyl (S)-2-((7-chloro-2-(2-fluoro-4-((S)-3-hydroxypyrrolidine-1-carbonyl)phenyl)imidazo[1,2-a]pyridin-3-yl)methyl)morpholine-4-carboxylate] | 100 to 1000 nM |
| COC(=O)N1CCO[C@@H](Cc2c(-c3ccc(C(=O)N4CC[C@@H](O)C4)cc3F)nc3cc(Cl)ccn23)C1 [Compound A69, methyl (S)-2-((7-chloro-2-(2-fluoro-4-((R)-3-hydroxypyrrolidine-1-carbonyl)phenyl)imidazo[1,2-a]pyridin-3-yl)methyl)morpholine-4-carboxylate] | > 1000 nM |
| COCCNC(=O)c1ccc(-c2nc3cc(Cl)ccn3c2C[C@H]2CN(C(=O)OC)CCO2)c(F)c1 [Compound A73, methyl (S)-2-((7-chloro-2-(2-fluoro-4-((2-methoxyethyl)carbamoyl)phenyl)imidazo[1,2-a]pyridin-3-yl)methyl)morpholine-4-carboxylate] | > 1000 nM |
| CNC(=O)c1ccc(-c2nc3cc(Cl)ccn3c2C[C@H]2CN(C(C)=O)CCO2)c(F)c1 [Compound A88, (S)-4-(3-((4-acetylmorpholin-2-yl)methyl)-7-chloroimidazo[1,2-a]pyridin-2-yl)-3-fluoro-N-methylbenzamide] | 100 to 1000 nM |
| CCC(=O)N1CCO[C@@H](Cc2c(-c3ccc(C(=O)NC)cc3F)nc3cc(Cl)ccn23)C1 [Compound A89, (S)-4-(7-chloro-3-((4-propionylmorpholin-2-yl)methyl)imidazo-[1,2-a]pyridin-2-yl)-3-fluoro-N-methylbenzamide] | 100 to 1000 nM |
| CNC(=O)c1cc(F)c(-c2nc3cc(C)ccn3c2CC2CCC(NC(C)=O)CC2)c(F)c1 (stereo not drawn) [trans-A21, 4-(3-((4-acetamidocyclohexyl)methyl)-7-methylimidazo[1,2-a]pyridin-2-yl)-3,5-difluoro-N-methylbenzamide] | > 1000 nM |
